Details: Liquid, Pulse Transmission

O [water]
Details | speed of sound [m/s]
318.1 K, 349600 kPa | 2061
318.1 K, 449800 kPa | 2181.8
318.11 K, 150100 kPa | 1787.1
318.11 K, 160100 kPa | 1802.4
318.11 K, 250600 kPa | 1930.2
318.12 K, 50400 kPa | 1623.1
318.12 K, 299900 kPa | 1996.4
318.12 K, 599100 kPa | 2350.3
318.12 K, 599600 kPa | 2346.3
318.12 K, 641800 kPa | 2388.1
318.13 K, 250400 kPa | 1930.2
318.13 K, 399600 kPa | 2121.7
318.14 K, 111200 kPa | 1725.7
318.14 K, 449700 kPa | 2182.1
318.14 K, 701800 kPa | 2454.2
318.15 K, 250000 kPa | 1930.6
318.15 K, 651000 kPa | 2405.8
318.16 K, 100 kPa | 1530.9
318.16 K, 401300 kPa | 2123.6
318.16 K, 549200 kPa | 2297.1
318.16 K, 559300 kPa | 2305.4
318.17 K, 50000 kPa | 1622.5
318.17 K, 499100 kPa | 2239.1
318.17 K, 499800 kPa | 2240.9
318.17 K, 549400 kPa | 2295.5
318.18 K, 450600 kPa | 2183.6
318.18 K, 702400 kPa | 2453.8
318.19 K, 200200 kPa | 1861.8
318.19 K, 499900 kPa | 2239.9
318.19 K, 651200 kPa | 2401.2
318.19 K, 701700 kPa | 2454.7
318.21 K, 99700 kPa | 1706.9
318.21 K, 602100 kPa | 2348.1
318.22 K, 150400 kPa | 1788.9
318.26 K, 49100 kPa | 1621.2
327.92 K, 641400 kPa | 2396.1
327.96 K, 560500 kPa | 2312.8
327.97 K, 701700 kPa | 2451.4
328.07 K, 550700 kPa | 2301.2
328.08 K, 109200 kPa | 1735.6
328.08 K, 350700 kPa | 2075.4
328.08 K, 499600 kPa | 2246.7
328.1 K, 150000 kPa | 1799.2
328.12 K, 100100 kPa | 1720.7
328.13 K, 200200 kPa | 1875.4
328.14 K, 50900 kPa | 1636.9
328.14 K, 300800 kPa | 2013.9
328.14 K, 450900 kPa | 2192
328.15 K, 300000 kPa | 2015.6
328.16 K, 159900 kPa | 1816
328.16 K, 351700 kPa | 2077.1
328.16 K, 399700 kPa | 2133
328.16 K, 499400 kPa | 2246.5
328.16 K, 601200 kPa | 2355.9
328.16 K, 601900 kPa | 2353.3
328.16 K, 700100 kPa | 2453.2
328.17 K, 50600 kPa | 1636.4
328.17 K, 200900 kPa | 1876.4
328.18 K, 250700 kPa | 1946.5
328.19 K, 100 kPa | 1541.1
328.19 K, 250700 kPa | 1947.4
328.21 K, 449800 kPa | 2189.2
328.21 K, 652700 kPa | 2406.9
328.22 K, 400100 kPa | 2137.3
328.27 K, 100 kPa | 1542.1
328.49 K, 99800 kPa | 1720.6
328.66 K, 650700 kPa | 2404.5
328.69 K, 300000 kPa | 2012.1
328.72 K, 200100 kPa | 1874.3
328.72 K, 400500 kPa | 2138.4
328.72 K, 551000 kPa | 2304.7
328.73 K, 50900 kPa | 1637.5
328.74 K, 449200 kPa | 2194.3
328.76 K, 100 kPa | 1543.9
328.76 K, 601300 kPa | 2354.9
328.77 K, 350900 kPa | 2076.6
328.77 K, 700400 kPa | 2453.8
328.83 K, 150100 kPa | 1799.9
328.9 K, 250100 kPa | 1944.4
328.92 K, 499400 kPa | 2250.4
337.66 K, 150000 kPa | 1810.9
337.69 K, 350500 kPa | 2086.1
337.69 K, 399100 kPa | 2142.9
337.75 K, 200500 kPa | 1886
337.8 K, 501100 kPa | 2260
337.85 K, 300700 kPa | 2024
337.87 K, 50100 kPa | 1643.6
337.95 K, 100500 kPa | 1731.6
338.02 K, 100 kPa | 1547.4
338.04 K, 601100 kPa | 2360.1
338.07 K, 650600 kPa | 2410.2
338.12 K, 451000 kPa | 2203.4
338.15 K, 250300 kPa | 1956.7
338.22 K, 549600 kPa | 2309.8
338.22 K, 700800 kPa | 2455.7
349.03 K, 601700 kPa | 2366
349.12 K, 500600 kPa | 2267.1
349.18 K, 49900 kPa | 1647.8
349.19 K, 100 kPa | 1549
349.22 K, 150700 kPa | 1818.4
349.22 K, 300400 kPa | 2029.7
349.27 K, 549200 kPa | 2313.8
349.28 K, 400700 kPa | 2153
349.3 K, 250900 kPa | 1965
349.32 K, 349800 kPa | 2091.6
349.35 K, 450800 kPa | 2209.4
349.41 K, 100400 kPa | 1737.3
349.59 K, 651400 kPa | 2412.5
349.68 K, 200700 kPa | 1892.8
349.72 K, 704500 kPa | 2445.1
